The experiment has as its target T1, human TGR5 (Homo sapiens, UniProt Q8TDU6).
T1 construct: expressed in transfected cells
T1 sequence (Q8TDU6 1-330): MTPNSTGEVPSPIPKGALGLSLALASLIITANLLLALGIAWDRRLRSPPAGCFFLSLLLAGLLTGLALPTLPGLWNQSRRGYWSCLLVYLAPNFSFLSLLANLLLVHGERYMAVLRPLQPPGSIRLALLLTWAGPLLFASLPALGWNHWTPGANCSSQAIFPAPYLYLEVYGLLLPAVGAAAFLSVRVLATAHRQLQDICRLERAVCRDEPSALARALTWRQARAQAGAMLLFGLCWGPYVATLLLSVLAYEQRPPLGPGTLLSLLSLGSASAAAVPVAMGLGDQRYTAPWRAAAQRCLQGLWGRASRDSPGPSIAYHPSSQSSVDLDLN
The experiment is described as follows: Cell-based TGR5 assay, HEK293 cells stably expressing human TGR5, cAMP by HTRF. As to conditions: 0.05 nM to 10 μM. How it is done:
Two primary cell based screens were performed. The first utilized HEK293 cells stably transfected to heterologously express human TGR5. The second screen used the human caecum carcinoma cell line NCI-H716 which endogenously expresses human TGR5. In both assays, cells are treated with candidate TGR5 activators and assessed for the increased intercellular levels of cAMP.
HEK293 cells were transfected with a vector that expresses a gene encoding human TGR5, and a stable cell line was isolated using drug selection following standard techniques. Cells were grown overnight at 37° C./5% CO2 prior to assay.
TGR5-mediated cAMP generation was measured using a homogeneous time resolved fluorescence (HTRF) detection method (Cisbio). Test compounds were dissolved in DMSO to a final concentration of 10 mM. Serial 3-fold dilutions of the stock solution were made in DMSO, and these solutions were diluted 100-fold into Hanks Balanced Salt Solution supplemented with 10 mM HEPES pH 7.4 and 0.5 mM isobutyl methylxanthine (IBMX). Prior to assay, culture medium was replaced with fresh medium, and test compounds diluted in HBSS/HEPES/IBMX were added to the cells and incubated at 37° C. for 30 minutes.
Following incubation with test compounds, cAMP was detected through the successive addition of cAMP labeled with the modified allophyocyanin dye d2 (cAMP-d2) and cryptate-labeled anti-cAMP in lysis buffer, and reading HTRF per the manufacturer's instructions. A standard curve was used to convert the raw HTRF data into [cAMP].

Where [1] appears, read: HEK293 cells stably expressing human TGR5, 30 min at 37 C, read-out: pEC50 Human TGR5 (converted).
The mark [2] stands for this setting: pEC50 Human TGR5, HEK293 cells stably expressing human TGR5, 30 min at 37 C.

Where two headings read alike, the source gives them in different places. A value given as a limit tells only on which side of the number the result lay.

For `O=C(N1CCN(C2CC2)c2ccccc21)C1(NCc2cc(I)ccc2C(F)(F)F)CC1` [Example 164, (4-cyclopropyl-3,4-dihydroquinoxalin-1(2H)-yl)(1-(5-iodo-2-(trifluoromethyl)benzylamino)cyclopropyl)methanone], under setting [1], the EC50 is 0.126 to 1 µM.

For the compound `O=C(N1CCN(C2CC2)c2ccccc21)C1(NCc2c(Cl)ccc(Cl)c2O)CC1` [Example 168, (4-cyclopropyl-3,4-dihydroquinoxalin-1(2H)-yl)(1-((3,6-dichloro-2-hydroxybenzyl)amino)cyclopropyl)methanone], under setting [1], the EC50 is 0.126 to 1 µM.

Turning to `O=C([C@@H]1CSCN1Cc1c(Cl)ccc(Cl)c1O)N1CCN(C2CC2)c2ccccc21` [Example 170, (R)-(4-cyclopropyl-3,4-dihydroquinoxalin-1(2H)-yl)(3-(3,6-dichloro-2-hydroxybenzyl)thiazolidin-4-yl)methanone], the EC50 under setting [1] was 0.126 to 1 µM.

Turning to `CN(CCCCc1cc(Cl)c(OCC2(C(=O)N3CCN(C4CC4)c4ccccc43)CC2)cc1Cl)C[C@H](O)[C@@H](O)[C@H](O)[C@H](O)CO` [Example 171, (4-cyclopropyl-3,4-dihydroquinoxalin-1(2H)-yl)(1-((2,5-dichloro-4-(4-(methyl((2S,3R,4R,5R)-2,3,4,5,6-pentahydroxyhexyl)amino)butyl)phenoxy)methyl)-cyclopropyl)methanone], the EC50 under setting [1] is 0.126 to 1 µM.

In the case of `CN(C[C@H](O)[C@@H](O)[C@H](O)[C@H](O)CO)C(=O)CCCCc1ccc(C(F)(F)F)c(CNC2(C(=O)N3CCN(C4CC4)c4ccccc43)CC2)c1` [Example 172, 5-(3-((1-(4-cyclopropyl-1,2,3,4-tetrahydroquinoxaline-1-carbonyl)cyclopropylamino)methyl)-4-(trifluoromethyl)phenyl)-N-methyl-N-((2S,3R,4R,5R)-2,3,4,5,6-pentahydroxyhexyl)pentanamide], the EC50 under setting [1] is 1.26 to 50.1 µM.

As to `O=C([C@@H]1CSCN1Cc1cc(Cl)c(CCCCCNc2nc(N(CCO)CCO)nc(N(CCO)CCO)n2)cc1Cl)N1CCN(C2CC2)c2ccccc21` [Example 173, 2-({4-[bis(2-hydroxyethyl)amino]-6-{[5-(2,5-dichloro-4-{[(4R)-4-[(4-cyclopropyl-1,2,3,4-tetrahydroquinoxalin-1-yl)carbonyl]-1,3-thiazolidin-3-yl]methyl}phenyl)pentyl]amino}-1,3,5-triazin-2-yl}(2-hydroxyethyl)amino)ethan-1-ol], the EC50 under setting [1] is 0.126 to 1 µM.

For the compound `O=C(NC[C@@H](O)[C@H](O)[C@@H](O)[C@@H](O)CO)C(CCCc1cc(Cl)c(CN2CSC[C@H]2C(=O)N2CCN(C3CC3)c3ccccc32)cc1Cl)C(=O)NC[C@@H](O)[C@H](O)[C@@H](O)[C@@H](O)CO` [Example 174, 2-(3-(2,5-dichloro-4-(((R)-4-(4-cyclopropyl-1,2,3,4-tetrahydroquinoxaline-1-carbonyl)thiazolidin-3-yl)methyl)phenyl)propyl)-N1,N3-bis((2R,3S,4S,5S)-2,3,4,5,6-pentahydroxyhexyl)malonamide], the EC50 under setting [1] is 1.26 to 50.1 µM.

As for `N=C(N)NCCCCCc1cc(Cl)c(CN2CSC[C@H]2C(=O)N2CCN(C3CC3)c3ccccc32)cc1Cl` [Example 181, (R)-(3-(4-(5-guanidinylpentyl)-2,5-dichlorobenzyl)thiazolidin-4-yl)(4-cyclopropyl-3,4-dihydroquinoxalin-1(2H)-yl)methanone], the EC50 under setting [1] was less than 0.1 µM.

In the case of `O=C(N1CCN(C2CC2)c2ccccc21)C1(NCc2cc(C3CC3)ccc2Cl)CC1` [Example 183, (1-(2-chloro-5-cyclopropylbenzylamino)cyclopropyl)(4-cyclopropyl-3,4-dihydroquinoxalin-1(2H)-yl)methanone], the EC50 under setting [1] was less than 0.1 µM.

On to `O=C(NCCOCCOCCOCCNC(=O)c1ccc(COc2cc(Cl)c(CN3CSC[C@H]3C(=O)N3CCN(C4CC4)c4ccccc43)cc2Cl)cc1)c1ccc(COc2cc(Cl)c(CN3CSC[C@@H]3C(=O)N3CCN(C4CC4)c4ccccc43)cc2Cl)cc1` [Example 190], for which the EC50 under setting [1] was 1.26 to 50.1 µM.

As to `CN(C[C@H](O)[C@@H](O)[C@H](O)[C@H](O)CO)C(=O)CCCCc1cc(Cl)c(COC2(C(=O)N3CCN(C4CC4)c4ccccc43)CC2)cc1Cl` [Example 192], the EC50 under setting [1] is less than 0.1 µM.

In turn, `O=C(NCCCN(CCCNC(=O)[C@H](O)[C@@H](O)[C@H](O)[C@H](O)CO)C(=O)NCCCCOc1cc(Cl)c(CN2CSC[C@H]2C(=O)N2CCN(C3CC3)c3ccccc32)cc1Cl)[C@H](O)[C@@H](O)[C@H](O)[C@H](O)CO` [Example 195] displayed an EC50 under setting [2] of 0.126 to 1 µM.

Turning to `CN(C[C@H](O)[C@@H](O)[C@H](O)[C@H](O)CO)C(=O)c1ccc(COc2cc(Cl)c(CN3CSC[C@H]3C(=O)N3CCN(C4CC4)c4ccccc43)cc2Cl)cc1` [Example 196], the EC50 under setting [1] was 0.126 to 1 µM.

Consider `O=C(NCCCN(CCCNC(=O)[C@H](O)[C@@H](O)[C@H](O)[C@H](O)CO)C(=O)c1ccc(COc2cc(Cl)c(CN3CSC[C@H]3C(=O)N3CCN(C4CC4)c4ccccc43)cc2Cl)cc1)[C@H](O)[C@@H](O)[C@H](O)[C@H](O)CO` [Example 197], for which the EC50 under setting [1] was 1.26 to 50.1 µM.

Consider `CN(C)c1nc(NCCCCCc2cc(Cl)c(CN3CSC[C@H]3C(=O)N3CCN(C4CC4)c4ccccc43)cc2Cl)nc(NC(CO)(CO)CO)n1` [Example 200], for which the EC50 under setting [1] was 0.126 to 1 µM.

As for `CN(C[C@H](O)[C@H](O)[C@@H](O)[C@H](O)CO)C(=O)c1ccc(CCc2cc(Cl)c(CN3CSC[C@H]3C(=O)N3CCN(C4CC4)c4ccccc43)cc2Cl)cn1` [Example 201], under setting [1], the EC50 was 0.126 to 1 µM.

In the case of `O=C(NC[C@H](O)[C@@H](O)[C@H](O)[C@H](O)CO)c1ccc(CCc2cc(Cl)c(CN3CSC[C@H]3C(=O)N3CCN(C4CC4)c4ccccc43)cc2Cl)cn1` [Example 202], the EC50 under setting [1] is 0.126 to 1 µM.

With `CN(C[C@H](O)[C@@H](O)[C@H](O)[C@H](O)CO)C(=O)c1ccc(COc2cc(Cl)c(CN3CSC[C@H]3C(=O)N3CCN(C4CC4)c4ccccc43)cc2Cl)o1` [Example 203], under setting [1], the EC50 is 0.126 to 1 µM.

On to `CN(C[C@H](O)[C@@H](O)[C@H](O)[C@H](O)CO)C(=O)c1ccc(COc2cc(Cl)c(CN3CSC[C@H]3C(=O)N3CCN(C4CC4)c4ccccc43)cc2Cl)nc1` [Example 205], for which the EC50 under setting [1] was 0.126 to 1 µM.

Take `C[C@@H](NC(=O)[C@@H](C)NC(=O)[C@@H](C)NC(=O)c1ccc(COc2cc(Cl)c(CN3CSC[C@H]3C(=O)N3CCN(C4CC4)c4ccccc43)cc2Cl)cc1)C(=O)O` [Example 207]: the EC50 under setting [1] is 0.126 to 1 µM.

Turning to `O=C(NCCCN(CCCNC(=O)[C@H](O)[C@@H](O)[C@H](O)[C@H](O)CO)C(=O)CCc1cc(Cl)c(CN2CSC[C@H]2C(=O)N2CCN(C3CC3)c3ccccc32)cc1Cl)[C@H](O)[C@@H](O)[C@H](O)[C@H](O)CO` [Example 209], under setting [1], the EC50 is 1.26 to 50.1 µM.

Turning to `O=C(CCCCc1cc(Cl)c(CN2C[S+]([O-])C[C@H]2C(=O)N2CCN(C3CC3)c3ccccc32)cc1Cl)NC[C@H](O)[C@@H](O)[C@H](O)[C@H](O)CO` (stereo partly drawn) [Example 221], under setting [1], the EC50 is 0.126 to 1 µM.

Consider `O=C(O)CNC(=O)[C@H](CS)NC(=O)CC[C@H](NC(=O)CCCCc1cc(Cl)c(CN2CSC[C@H]2C(=O)N2CCN(C3CC3)c3ccccc32)cc1Cl)C(=O)O` [Example 222], for which, under setting [1], the EC50 is less than 0.1 µM.

On to `COC(=O)c1cc(NCCCCCc2cc(Cl)c(CN3CSC[C@H]3C(=O)N3CCN(C4CC4)c4ccccc43)cc2Cl)nc(N(C)C[C@H](O)[C@@H](O)[C@H](O)[C@H](O)CO)n1` [Example 223], for which the EC50 under setting [1] was 0.126 to 1 µM.

Consider `CN(C[C@H](O)[C@@H](O)[C@H](O)[C@H](O)CO)C(=O)c1cc(NCCCCCc2cc(Cl)c(CN3CSC[C@H]3C(=O)N3CCN(C4CC4)c4ccccc43)cc2Cl)nc(N(C)CCO)n1` [Example 224], for which, under setting [1], the EC50 was 0.126 to 1 µM.

`CN(CCO)c1nc(NCCCCCc2cc(Cl)c(CN3CSC[C@H]3C(=O)N3CCN(C4CC4)c4ccccc43)cc2Cl)cc(C(=O)NC[C@H](O)[C@@H](O)[C@H](O)[C@H](O)CO)n1` [Example 225]: the EC50 under setting [1] is less than 0.1 µM.

Under setting [2], `O=C(O)CN(C[C@H](O)[C@@H](O)[C@H](O)[C@H](O)CO)C(=O)CCCCc1cc(Cl)c(CN2CSC[C@H]2C(=O)N2CCN(C3CC3)c3ccccc32)cc1Cl` [Example 226] came in with an EC50 of 0.126 to 1 µM.

On to `CN(C[C@H](O)[C@@H](O)[C@H](O)[C@H](O)CO)C(=O)c1cccc(OCc2cc(Cl)c(CN3CSC[C@H]3C(=O)N3CCN(C4CC4)c4ccccc43)cc2Cl)c1` [Example 230], for which the EC50 under setting [1] is 0.126 to 1 µM.

Turning to `CN(C[C@H](O)[C@@H](O)[C@H](O)[C@H](O)CO)C(=O)c1cnc(SCc2cc(Cl)c(CN3CSC[C@H]3C(=O)N3CCN(C4CC4)c4ccccc43)cc2Cl)n1C` [Example 231], under setting [1], the EC50 was 0.126 to 1 µM.

`O=C(O)c1cnn(Cc2cc(Cl)c(CN3CSC[C@H]3C(=O)N3CCN(C4CC4)c4ccccc43)cc2Cl)c1` [Example 232]: under setting [1], the EC50 is 1.26 to 50.1 µM.

(Values after patent US20150148311A1, “NON-SYSTEMIC TGR5 AGONISTS” (Ardelyx, Inc., priority 2011, published 2015).)
